Source: the supplement of paper PMC9663587

Legend:
Assay in all cases: area over the GR curve, 72 h; higher = more effect;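 note: Dye Drop or Deep Dye Drop imaging of viable cells in 384-well plates (Hoechst nuclei, LIVE/DEAD dye), nine half-log doses, GR normalized to DMSO controls and time-zero plates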
T47D = tested on: T47D
HCC1143 = tested on: HCC1143
MDAMB453 = tested on: MDAMB453
PDX1258 = tested on: PDX1258
CAL120 = tested on: CAL120
HCC1954 = tested on: HCC1954
HCC1569 = tested on: HCC1569
PDX1328 = tested on: PDX1328
SUM229PE = tested on: SUM229PE
SUM149 = tested on: SUM149
MDAMB436 = tested on: MDAMB436

Compound: CN1CCN(CCOc2cc(OC3CCOCC3)c3c(Nc4c(Cl)ccc5c4OCO5)ncnc3c2)CC1 [Saracatinib/AZD0530] (max 10 µM)
- area over the GR curve (T47D): 0.171 GR
- area over the GR curve (HCC1143): 0.237 GR
- area over the GR curve (MDAMB453): 0.0491 GR
- area over the GR curve (PDX1258): 0.275 GR
- area over the GR curve (CAL120): 0.173 GR
- area over the GR curve (HCC1954): 0.191 GR
- area over the GR curve (HCC1569): 0.188 GR
- area over the GR curve (PDX1328): 0.31 GR
- area over the GR curve (SUM229PE): 0.131 GR
- area over the GR curve (SUM149): 0.132 GR
- area over the GR curve (MDAMB436): 0.0385 GR

Compound: Cc1cc(C(C)Nc2ccccc2)c2nc(N3CCOCC3)cc(=O)n2c1 (configuration not stated) [TGX221] (max 10 µM)
- area over the GR curve (T47D): -0.0193 GR
- area over the GR curve (HCC1143): 0.0331 GR
- area over the GR curve (MDAMB453): -0.0643 GR
- area over the GR curve (PDX1258): -0.0475 GR
- area over the GR curve (CAL120): -0.0168 GR
- area over the GR curve (HCC1954): -0.0656 GR
- area over the GR curve (HCC1569): 0.0644 GR
- area over the GR curve (PDX1328): 0.0318 GR
- area over the GR curve (SUM229PE): -0.0167 GR
- area over the GR curve (SUM149): -0.0254 GR
- area over the GR curve (MDAMB436): -0.0103 GR

Compound: CN(C)C/C=C/C(=O)Nc1ccc(C(=O)Nc2cccc(Nc3ncc(Cl)c(-c4c[nH]c5ccccc45)n3)c2)cc1 [THZ1] (max 1 µM)
- area over the GR curve (T47D): 0.446 GR
- area over the GR curve (HCC1143): 0.487 GR
- area over the GR curve (MDAMB453): 0.553 GR
- area over the GR curve (PDX1258): 0.633 GR
- area over the GR curve (CAL120): 0.337 GR
- area over the GR curve (HCC1954): 0.31 GR
- area over the GR curve (HCC1569): 0.363 GR
- area over the GR curve (PDX1328): 0.483 GR
- area over the GR curve (SUM229PE): 0.504 GR
- area over the GR curve (SUM149): 0.425 GR
- area over the GR curve (MDAMB436): 0.196 GR

Compound: CN(C)C/C=C/C(=O)Nc1ccc(C(=O)N2CCC[C@@H](Nc3ncc(Cl)c(-c4c[nH]c5ccccc45)n3)C2)cc1 [THZ531] (max 1 µM)
- area over the GR curve (T47D): 0.229 GR
- area over the GR curve (HCC1143): 0.266 GR
- area over the GR curve (MDAMB453): 0.537 GR
- area over the GR curve (PDX1258): 0.457 GR
- area over the GR curve (CAL120): 0.21 GR
- area over the GR curve (HCC1954): 0.143 GR
- area over the GR curve (HCC1569): 0.312 GR
- area over the GR curve (PDX1328): 0.418 GR
- area over the GR curve (SUM229PE): 0.132 GR
- area over the GR curve (SUM149): 0.154 GR
- area over the GR curve (MDAMB436): 0.158 GR

Compound: CN(C)C/C=C/C(=O)Nc1ccc(C(=O)Nc2cccc(Nc3cc(-c4c[nH]c5ccccc45)ncn3)c2)cc1 [THZ-P1-2] (max 10 µM)
- area over the GR curve (T47D): 0.353 GR
- area over the GR curve (HCC1143): 0.216 GR
- area over the GR curve (MDAMB453): 0.533 GR
- area over the GR curve (PDX1258): 0.572 GR
- area over the GR curve (CAL120): 0.124 GR
- area over the GR curve (HCC1954): 0.114 GR
- area over the GR curve (HCC1569): 0.0873 GR
- area over the GR curve (PDX1328): 0.0529 GR
- area over the GR curve (SUM229PE): 0.149 GR
- area over the GR curve (SUM149): 0.117 GR
- area over the GR curve (MDAMB436): 0.272 GR

Compound: Cc1nc(-c2cn3c(n2)-c2ccc(-c4cnn(C(C)(C)C(N)=O)c4)cc2OCC3)n(C(C)C)n1 [Taselisib/GDC0032] (max 10 µM)
- area over the GR curve (T47D): 0.899 GR
- area over the GR curve (HCC1143): 0.476 GR
- area over the GR curve (MDAMB453): 1.01 GR
- area over the GR curve (PDX1258): 0.278 GR
- area over the GR curve (CAL120): 0.235 GR
- area over the GR curve (HCC1954): 0.949 GR
- area over the GR curve (HCC1569): 0.598 GR
- area over the GR curve (PDX1328): 0.576 GR
- area over the GR curve (SUM229PE): 0.397 GR
- area over the GR curve (SUM149): 0.205 GR
- area over the GR curve (MDAMB436): 0.173 GR

Compound: O=C1NC(=O)[C@@H](c2cn3c4c(cccc24)CCC3)[C@@H]1c1c[nH]c2ccccc12 [Tivantinib/ARQ197] (max 10 µM)
- area over the GR curve (T47D): 0.365 GR
- area over the GR curve (HCC1143): 0.498 GR
- area over the GR curve (MDAMB453): 0.404 GR
- area over the GR curve (PDX1258): 0.373 GR
- area over the GR curve (CAL120): 0.465 GR
- area over the GR curve (HCC1954): 0.544 GR
- area over the GR curve (HCC1569): 0.278 GR
- area over the GR curve (PDX1328): 0.528 GR
- area over the GR curve (SUM229PE): 0.661 GR
- area over the GR curve (SUM149): 0.446 GR
- area over the GR curve (MDAMB436): 0.421 GR

Compound: Nc1ccc(-c2ccc3ncc4ccc(=O)n(-c5cccc(C(F)(F)F)c5)c4c3c2)cn1 [Torin2] (max 1 µM)
- area over the GR curve (T47D): 0.522 GR
- area over the GR curve (HCC1143): 0.362 GR
- area over the GR curve (MDAMB453): 0.679 GR
- area over the GR curve (PDX1258): 0.362 GR
- area over the GR curve (CAL120): 0.487 GR
- area over the GR curve (HCC1954): 0.55 GR
- area over the GR curve (HCC1569): 0.487 GR
- area over the GR curve (PDX1328): 0.643 GR
- area over the GR curve (SUM229PE): 0.345 GR
- area over the GR curve (SUM149): 0.255 GR
- area over the GR curve (MDAMB436): 0.337 GR

Compound: CC[C@@H]1C(=O)N(C)c2cnc(Nc3ccc(C(=O)N[C@H]4CC[C@H](N5CCN(CC6CC6)CC5)CC4)cc3OC)nc2N1C(C)C [Volasertib/BI6727] (max 1 µM)
- area over the GR curve (T47D): 0.385 GR
- area over the GR curve (HCC1143): 0.729 GR
- area over the GR curve (MDAMB453): 0.488 GR
- area over the GR curve (PDX1258): 0.549 GR
- area over the GR curve (CAL120): 0.676 GR
- area over the GR curve (HCC1954): 0.611 GR
- area over the GR curve (HCC1569): 0.375 GR
- area over the GR curve (PDX1328): 0.842 GR
- area over the GR curve (SUM229PE): 0.605 GR
- area over the GR curve (SUM149): 0.569 GR
- area over the GR curve (MDAMB436): 0.662 GR

Compound: O=C(CCCCCCC(=O)Nc1ccccc1)NO [Vorinostat] (max 10 µM)
- area over the GR curve (T47D): 0.146 GR
- area over the GR curve (HCC1143): 0.294 GR
- area over the GR curve (MDAMB453): 0.263 GR
- area over the GR curve (PDX1258): 0.211 GR
- area over the GR curve (CAL120): 0.241 GR
- area over the GR curve (HCC1954): 0.234 GR
- area over the GR curve (HCC1569): 0.163 GR
- area over the GR curve (PDX1328): 0.36 GR
- area over the GR curve (SUM229PE): 0.153 GR
- area over the GR curve (SUM149): 0.225 GR
- area over the GR curve (MDAMB436): 0.163 GR

Compound: C=CC(=O)Nc1ccc(C(=O)Nc2[nH]nc3c2CN(C(=O)N[C@H](CN(C)C)c2ccccc2)C3(C)C)cc1 [YKL-5-124] (max 10 µM)
- area over the GR curve (T47D): 0.872 GR
- area over the GR curve (HCC1143): 0.788 GR
- area over the GR curve (MDAMB453): 0.834 GR
- area over the GR curve (PDX1258): 0.993 GR
- area over the GR curve (CAL120): 0.591 GR
- area over the GR curve (HCC1954): 0.969 GR
- area over the GR curve (HCC1569): 0.736 GR
- area over the GR curve (PDX1328): 0.532 GR
- area over the GR curve (SUM229PE): 0.744 GR
- area over the GR curve (SUM149): 0.875 GR
- area over the GR curve (MDAMB436): 0.584 GR

Compound: CN1CCN(C(=O)c2ccc3cc(CCNc4ncnc5ccc(C#N)cc45)ccc3c2)CC1 [senexin b] (max 10 µM)
- area over the GR curve (T47D): 0.322 GR
- area over the GR curve (HCC1143): 0.22 GR
- area over the GR curve (MDAMB453): 0.193 GR
- area over the GR curve (PDX1258): 0.125 GR
- area over the GR curve (CAL120): 0.131 GR
- area over the GR curve (HCC1954): 0.327 GR
- area over the GR curve (HCC1569): 0.158 GR
- area over the GR curve (PDX1328): 0.0976 GR
- area over the GR curve (SUM229PE): 0.21 GR
- area over the GR curve (SUM149): 0.129 GR
- area over the GR curve (MDAMB436): 0.0859 GR
